Data: patent US10226470B2, “DGAT1 inhibition for treatment of demyelinating inflammatory disease” (The Board of Trustees of the Leland Stanford Junior …, priority 2014, dated 2019)

Columns and labels:
[1] = test system: C57BL/6 mice with MOG35-55-induced EAE; assay: EAE induced by active immunization with MOG35-55/CFA, clinical scoring and CNS histology; type: in vivo, mouse
Description: In addition, administration of a selective DGAT1 inhibitor attenuated MOG35-55-induced EAE. C57BL/6 mice (8 weeks old) were induced to develop EAE by active immunization with MOG35-55/CFA. Twelve days after disease induction (indicated by the arrow), mice were administered vehicle (10% Captisol) or 10 mg/kg DGAT1 inhibitor A922500 once daily via s.c. injection and followed for clinical disease (n=10/group). Clinical data are presented as the mean score ±SEM. The scoring system is as follows: 0, normal or healthy; 1, limp tail; 2, hindlimb weakness; 3, hindlimb paralysis; 4, hindlimb and forelimb paralysis. *P<0.05 (days 14-30) by Mann-Whitney U test.
EAE models. For EAE induction by active immunization, mice (8-10 weeks old) were immunized via subcutaneous (s.c.) injection with 100 μg MOG35-55 emulsified in CFA as described. Mice also received 250 ng pertussis toxin (List Biological Labs) via tail vein injection at the time of MOG35-55/CFA immunization and again 2 days later. Clinical disease was scored as follows: 0=normal or healthy; 1=flaccid tail; 2=hindlimb weakness; 3=hindlimb paralysis; 4=hindlimb and forelimb paralysis; 5=moribund or dead. Where indicated, A922500 was formulated in 10% Captisol vehicle for in vivo dosing via s.c. injection (100 μl volume). Individuals who conducted the clinical scoring were blinded to the treatment that the mice received.
Histology. Brain and spinal cord tissues were fixed in 10% buffered formalin. Paraffin-embedded tissues were then stained with H&E, and CNS inflammatory foci (>10 mononuclear cells/focus) in leptomeninges and parenchyma were counted in each mouse sample in a blinded fashion.
Statistics. The Mann-Whitney U test was applied to analyze nonparametric clinical EAE data, and the Student's t test was used to analyze all parametric data. The Fisher's exact test was used to compare disease incidence.

C57BL/6 mice = assay: Tolerability observations in treated mice (behavior, leukocytes, organ wet weights and gross morphology); type: in vivo, mouse; settings: mice induced to develop EAE, treated from day 12 p.i.
Excerpt: To address this possibility, we first determined whether pharmacological inhibition of DGAT1 could modulate clinical EAE. […] Suppression of clinical disease was evident as early as 2 days after dosing began and persisted until termination of the experiment at day 30 p.i. (FIG. 3a). Overall, the compound delayed onset of clinical signs by an average of 6 days and reduced disease incidence at day 30 p.i. by 30%. […] Thus, administration of a selective DGAT1 inhibitor attenuates EAE.

WT CD4+CD25− cells = assay: In vitro T regulatory cell induction, WT T cells; type: cell-based, mouse
Description: (§1) FIG. 7. DGAT1 limits retinoic acid-dependent Treg induction. WT or DGAT1 KO CD4+CD25− cells were incubated with T cell-depleted DGAT1 KO MLN cells in delipidated serum in the absence or presence of: soluble anti-CD3; TGFβ; retinol (ROL; 10 nM); A922500 (100 nM); or AM580 (10 nM) where indicated. After 3 days, TCRβ+ lymphocytes in the live gate were analyzed for expression of CD4 and Foxp3 by flow cytometry. (a) Representative FACS plots show the frequency of WT (top panels) or DGAT1 KO (bottom panels) CD4+Foxp3+ Tregs within the gate. (b) FACS data are summarized in bar graph form. Bars depict the mean+SEM of triplicate wells. Two independent experiments were performed.
(§2) This acyl-CoA:retinol acyltransferase (ARAT) function enables DGAT1 to convert retinol (vitamin A) to its storage retinyl ester form. RA, the active metabolite of vitamin A, supports Treg induction; however, T lymphocytes cannot synthesize RA autonomously. We hypothesized that T cell-expressed DGAT1 functions as an ARAT, diverting retinol to its storage ester form. This would lead to a reduction in levels of RA locally. Conversely, DGAT1 deficiency would prevent this sequestration of retinol, leading to elevated RA and Treg induction. […]

[2] = daily 10 mg/kg; models of obesity; cited from earlier work
DGAT1 KO CD4+CD25− cells = assay: In vitro T regulatory cell induction, DGAT1 KO T cells; type: cell-based, mouse; settings: retinol 10 nM; anti-CD3/TGFβ, DGAT1 KO MLN cells, delipidated serum, 3 days
Description: as §1, §2

[3] = 30 days after EAE induction, mean (SEM), 10 mg/kg s.c. once daily from day 12

**Q.** What does the source list for `O=C(Nc1ccccc1)Nc1ccc(-c2ccc(C(=O)[C@@H]3CCC[C@H]3C(=O)O)cc2)cc1` [A922500]?
**A.** Time after start of dosing at which suppression of clinical disease was evident ([1]; 10 mg/kg daily from day 12 p.i., persisted until day 30 p.i.): 2 days; Mean maximal score (SEM) ([1]; 10 mg/kg s.c. once daily from day 12 p.i., clinical score 0-5): 1.4 (0.4)^ns; Mean day of onset (SEM) ([1]; 10 mg/kg s.c. once daily from day 12 p.i., only animals that developed EAE): 20.1 (1.9)* day; No. of CNS inflammatory foci, Meninges [1, 3]: 19.8 (8.8); No. of CNS inflammatory foci, Parenchyma [1, 3]: 29.9 (12.4); Delay of onset of clinical signs ([1]; average, versus vehicle, 10 mg/kg daily from day 12 p.i.): 6 days; Effect on clinical EAE ([1]; daily 10 mg/kg, P<0.05 days 14-30 p.i. by Mann-Whitney U test): attenuated EAE; Reduction of disease incidence at day 30 p.i. ([1]; versus vehicle, 10 mg/kg daily from day 12 p.i.): 30%; Leukocyte numbers or composition within peripheral lymphoid tissues (C57BL/6 mice): did not induce overt behavioral changes or significantly alter leukocyte numbers or composition within peripheral lymphoid tissues; Organ toxicity (wet weights and gross morphology of several organs incl. spleen and thymus) (C57BL/6 mice): did not cause detectable organ toxicity; Overt behavioral changes (C57BL/6 mice): did not induce overt behavioral changes; Difference between DGAT1−/− and WT Treg induction responses to retinol (WT CD4+CD25− cells; A922500 100 nM with retinol 10 nM, anti-CD3/TGFβ, 3 days): abrogated the difference between DGAT1−/− and WT cell responses; Serum TG levels [2]: significantly reduces serum TG levels

**Q.** With `CC1(C)CCC(C)(C)c2cc(C(=O)Nc3ccc(C(=O)O)cc3)ccc21` [AM580] as the compound, how does the “Treg induction by RAR agonist” value (WT CD4+CD25− cells; AM580 10 nM, WT and DGAT1 KO cells, DGAT1 deficiency had no significant effect) read?
**A.** enhanced Treg induction

**Q.** For `CC1=C(/C=C/C(C)=C/C=C/C(C)=C/CO)C(C)(C)CCC1` [retinol, All-trans-retinol], which “Foxp3+ Treg induction” value (DGAT1 KO CD4+CD25− cells) is on record?
**A.** significantly enhanced
